Data published in patent US9422311B2, “Compounds for the treatment of hepatitis C” (priority 2012, dated 2016).
Read-outs that look alike come from different tables or passages of the source.

Tested on: HCV pseudoparticles, genotype 1a (H77C) E1 and E2 envelope
Test: HCV pseudoparticle infection assay (luciferase, Huh7 cells)
Assay type: cell-based, hepatitis C virus (HCV) genotype 1a
Conditions: Hepatitis C virus, Huh-7, 48 h, read-out: EC50 (nM) 1a (H77C), HCV pseudoparticles genotype 1a (H77C), Huh7 cells, luciferase 2 days after infection

Question: How did the EC50 (class symbol) turn out when `C=C1COc2ccc(cc2)CNc2nc(nc(OCC(F)(F)F)n2)Nc2ccc(cc2)C(=O)NCC(C)(C)CN(C(=O)C(=O)OCC)C1` [Example 1001] was run?
Answer: 0.1 to 100 nM

Question: And the EC50 (numeric value)?
Answer: 0.629 nM

Question: With `C=C1COc2ccc(cc2)CNc2nc(nc(OCC(F)(F)F)n2)Nc2ccc(cc2)C(=O)NCC(C)(C)CN(C(=O)C(=O)O)C1` [Example 1002] as the compound, how does the EC50 (class symbol) read?
Answer: 0.1 to 100 nM

Question: And the EC50 (numeric value)?
Answer: 5.73 nM

Question: Which EC50 (class symbol) does the source give for `C=C1COc2ccc(cc2)CNc2nc(nc(OCC(F)(F)F)n2)Nc2ccc(cc2)C(=O)NCC(C)(C)CN(C(=O)C(=O)NCC2CC2)C1` [Example 1003] here?
Answer: 0.1 to 100 nM

Question: `C=C1COc2ccc(cc2)CNc2nc(nc(OCC(F)(F)F)n2)Nc2ccc(cc2)C(=O)NCC(C)(C)CN(C(=O)C(=O)Nc2ccc(F)cc2)C1` [Example 1004] was tested. Which EC50 (class symbol) did it give?
Answer: 0.1 to 100 nM

Question: Which results are given for `CC1(C)CNC(=O)c2ccc(nc2)Nc2cc(nc(OCC(F)(F)F)n2)NCc2ccc(cc2)OCCCN(C(=O)C(=O)Nc2ccc(Cl)c(F)c2)C1` [Example 2003]?
Answer: EC50 (class symbol): 0.1 to 100 nM; EC50 (numeric value): 0.105 nM

Question: How did the EC50 (class symbol) turn out when `CC1(C)CNC(=O)c2ccc(nc2)Nc2cc(nc(OCC(F)(F)F)n2)NCc2ccc(cc2)OCCCN(C(=O)C(=O)Nc2ccc(C#N)cc2)C1` [Example 2004] was run?
Answer: 0.1 to 100 nM

Question: With `CN(C)C(=O)C(=O)N1CCCOc2ccc(cc2Cl)CNc2nc(nc(OCC(F)(F)F)n2)Nc2ccc(cc2)C(=O)NCC(C)(C)C1` [Example 3001] as the compound, how does the EC50 (class symbol) read?
Answer: 0.1 to 100 nM

Question: Which EC50 (class symbol) does the source give for `CC1(C)CNC(=O)c2ccc(cc2)Nc2nc(nc(OCC(F)(F)F)n2)NCc2ccc(c(Cl)c2)OCCCN(C(=O)C(N)=O)C1` [Example 3002] here?
Answer: 0.1 to 100 nM

Question: How did the EC50 (class symbol) turn out when `Cc1ccc(NC(=O)C(=O)N2CCCOc3ccc(cc3Cl)CNc3nc(nc(OCC(F)(F)F)n3)Nc3ccc(cc3)C(=O)NCC(C)(C)C2)cc1` [Example 3003] was run?
Answer: 0.1 to 100 nM

Question: For `CC1(C)CNC(=O)c2ccc(cc2)Nc2nc(nc(OCC(F)(F)F)n2)NCc2ccc(c(Cl)c2)OCCCN(C(=O)C(=O)N2CCOCC2)C1` [Example 3005], which EC50 (class symbol) is on record?
Answer: 0.1 to 100 nM

Question: `CC1(C)CNC(=O)c2ccc(cc2)Nc2nc(nc(OCC(F)(F)F)n2)NCc2ccc(c(Cl)c2)OCCCN(C(=O)C(=O)Nc2nncs2)C1` [Example 3006] was tested. Which EC50 (class symbol) did it give?
Answer: 0.1 to 100 nM

Question: Which EC50 (class symbol) does the source give for `CC1(C)CNC(=O)c2ccc(cc2)Nc2nc(nc(OCC(F)(F)F)n2)NCc2ccc(c(Cl)c2)OCCCN(C(=O)C(=O)Nc2cccc(F)c2)C1` [Example 3007] here?
Answer: 0.1 to 100 nM

Question: For `CC1(C)CNC(=O)c2ccc(cc2)Nc2nc(nc(OCC(F)(F)F)n2)NCc2ccc(c(Cl)c2)OCCCN(C(=O)C(=O)Nc2ccc(F)cc2)C1` [Example 3008], which EC50 (class symbol) is on record?
Answer: 0.1 to 100 nM

Question: What about the EC50 (numeric value) of the same compound?
Answer: 2.42 nM

Question: For `CC1(C)CNC(=O)c2ccc(cc2)Nc2nc(nc(OCC(F)(F)F)n2)NCc2ccc(c(Cl)c2)OCCCN(C(=O)C(=O)Nc2ccccc2)C1` [Example 3009], which EC50 (class symbol) is on record?
Answer: 0.1 to 100 nM

Question: With `CC1(C)CNC(=O)c2ccc(cc2)Nc2nc(nc(OCC(F)(F)F)n2)NCc2ccc(c(Cl)c2)OCCCN(C(=O)C(=O)Nc2cc(F)cc(F)c2)C1` [Example 3010] as the compound, how does the EC50 (class symbol) read?
Answer: 0.1 to 100 nM

Question: With `CC1(C)CNC(=O)c2ccc(cc2)Nc2nc(nc(OCC(F)(F)F)n2)NCc2ccc(c(Cl)c2)OCCCN(C(=O)C(=O)NC2CCCCC2)C1` [Example 3012] as the compound, how does the EC50 (class symbol) read?
Answer: 0.1 to 100 nM

Question: For `CC1(C)CNC(=O)c2ccc(cc2)Nc2nc(nc(OCC(F)(F)F)n2)NCc2ccc(c(Cl)c2)OCCCN(C(=O)C(=O)N2CCc3ccccc3C2)C1` [Example 3013], which EC50 (class symbol) is on record?
Answer: 0.1 to 100 nM

Question: Which EC50 (class symbol) does the source give for `CC(C)CNC(=O)C(=O)N1CCCOc2ccc(cc2Cl)CNc2nc(nc(OCC(F)(F)F)n2)Nc2ccc(cc2)C(=O)NCC(C)(C)C1` [Example 3014] here?
Answer: 0.1 to 100 nM

Question: Which EC50 (class symbol) does the source give for `CNC(=O)C(=O)N1CCCOc2ccc(cc2Cl)CNc2nc(nc(OCC(F)(F)F)n2)Nc2ccc(cc2)C(=O)NCC(C)(C)C1` [Example 3015] here?
Answer: 0.1 to 100 nM

Question: For `CCc1nnc(NC(=O)C(=O)N2CCCOc3ccc(cc3Cl)CNc3nc(nc(OCC(F)(F)F)n3)Nc3ccc(cc3)C(=O)NCC(C)(C)C2)s1` [Example 3016], which EC50 (class symbol) is on record?
Answer: 0.1 to 100 nM

Question: And the EC50 (numeric value)?
Answer: 24 nM

Question: With `Cc1cc(NC(=O)C(=O)N2CCCOc3ccc(cc3Cl)CNc3nc(nc(OCC(F)(F)F)n3)Nc3ccc(cc3)C(=O)NCC(C)(C)C2)no1` [Example 3017] as the compound, how does the EC50 (class symbol) read?
Answer: 0.1 to 100 nM

Question: How did the EC50 (class symbol) turn out when `CC1(C)CNC(=O)c2ccc(cc2)Nc2nc(nc(OCC(F)(F)F)n2)NCc2ccc(c(Cl)c2)OCCCN(C(=O)C(=O)N2CCCCC2)C1` [Example 3018] was run?
Answer: 0.1 to 100 nM

Question: `CC1(C)CNC(=O)c2ccc(cc2)Nc2nc(nc(OCC(F)(F)F)n2)NCc2ccc(c(Cl)c2)OCCCN(C(=O)C(=O)Nc2nccs2)C1` [Example 3019] was tested. Which EC50 (class symbol) did it give?
Answer: 0.1 to 100 nM

Question: For `Cc1nnc(NC(=O)C(=O)N2CCCOc3ccc(cc3Cl)CNc3nc(nc(OCC(F)(F)F)n3)Nc3ccc(cc3)C(=O)NCC(C)(C)C2)s1` [Example 3020], which EC50 (class symbol) is on record?
Answer: 0.1 to 100 nM
